Measurements published in ChEMBL document CHEMBL1201862, “PubChem BioAssay data set” (2004).
The source made the active and inactive calls.

How the values were obtained:
[1] = NIH3T3 cell viability loss – ATP luminescence, mouse fibroblasts, counter-screen, dose response (AID 2010); type: functional, cell-based;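 further: cells exposed to compound for about 90 hours before reading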
[2] = target: DNA repair and recombination protein RAD54-like (Homo sapiens, UniProt Q92698); assay: RAD54 Holliday junction migration blockers – biochemical, fluorescence, cherry-picked samples, dose series, confirmation (AID 651657); type: functional
DNA repair and recombination protein RAD54-like, sequence (Q92698 whole entry): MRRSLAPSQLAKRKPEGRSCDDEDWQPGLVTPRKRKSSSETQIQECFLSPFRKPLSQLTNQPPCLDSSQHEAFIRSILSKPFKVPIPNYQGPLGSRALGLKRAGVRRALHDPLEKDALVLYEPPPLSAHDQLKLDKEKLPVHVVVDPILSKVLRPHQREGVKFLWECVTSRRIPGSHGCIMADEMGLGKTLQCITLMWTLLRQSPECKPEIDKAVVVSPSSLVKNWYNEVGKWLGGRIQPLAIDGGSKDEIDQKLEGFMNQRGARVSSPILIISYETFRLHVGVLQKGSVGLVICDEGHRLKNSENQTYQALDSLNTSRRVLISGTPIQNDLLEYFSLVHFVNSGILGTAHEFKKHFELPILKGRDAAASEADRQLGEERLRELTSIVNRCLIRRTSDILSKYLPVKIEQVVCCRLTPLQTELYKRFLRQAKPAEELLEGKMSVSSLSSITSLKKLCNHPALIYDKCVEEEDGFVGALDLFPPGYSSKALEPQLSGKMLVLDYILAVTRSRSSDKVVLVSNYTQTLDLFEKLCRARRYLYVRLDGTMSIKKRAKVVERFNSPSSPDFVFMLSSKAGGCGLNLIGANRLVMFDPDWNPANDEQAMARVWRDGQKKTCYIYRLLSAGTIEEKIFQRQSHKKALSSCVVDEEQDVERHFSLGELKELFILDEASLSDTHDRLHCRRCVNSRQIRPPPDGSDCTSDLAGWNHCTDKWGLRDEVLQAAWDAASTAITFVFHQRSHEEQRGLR

[3] = target: T1, DNA repair protein RAD52 homolog (Homo sapiens, UniProt P43351); type: functional, biochemical
T1 sequence (P43351 whole entry): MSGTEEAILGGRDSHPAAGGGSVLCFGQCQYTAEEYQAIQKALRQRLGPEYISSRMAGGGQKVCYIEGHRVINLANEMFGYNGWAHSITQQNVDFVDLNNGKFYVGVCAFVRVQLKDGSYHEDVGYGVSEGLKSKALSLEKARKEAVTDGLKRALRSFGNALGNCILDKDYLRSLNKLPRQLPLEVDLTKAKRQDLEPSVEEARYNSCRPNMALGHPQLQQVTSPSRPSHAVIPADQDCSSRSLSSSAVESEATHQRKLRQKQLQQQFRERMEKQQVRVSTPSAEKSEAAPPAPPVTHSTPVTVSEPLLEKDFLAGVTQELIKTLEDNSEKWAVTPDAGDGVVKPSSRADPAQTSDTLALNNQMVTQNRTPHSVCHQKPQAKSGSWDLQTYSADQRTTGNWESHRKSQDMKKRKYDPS

[4] = Trypanosoma cruzi growth suppression in host cells – NIH3T3 host cells, beta-gal luminescence, confirmation (AID 2044); type: functional, cell-based;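 further: intracellular parasites grown in NIH/3T3 mouse fibroblasts as host cells; luminescent beta-galactosidase reporter signal from transgenic T. cruzi replicating inside host cells; inhibitors lower the luminescence signal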
[5] = Luminescence Cell-Based Dose Confirmation HTS to Identify Inhibitors of Polyadenylation.; type: functional
[6] = target: Palmitoyl-protein thioesterase ABHD10, mitochondrial (Mus musculus, UniProt Q6PE15); assay: Late stage assay provider results from the probe development effort to identify inhibitors of PME-1: fluorescence-based dose response biochemical gel-based competitive Activity-Based Protein Profiling (ABPP) inhibition of ABHD10 Set 2.; type: functional
Palmitoyl-protein thioesterase ABHD10, mitochondrial, sequence (Q6PE15 whole entry, the tested form may be a part): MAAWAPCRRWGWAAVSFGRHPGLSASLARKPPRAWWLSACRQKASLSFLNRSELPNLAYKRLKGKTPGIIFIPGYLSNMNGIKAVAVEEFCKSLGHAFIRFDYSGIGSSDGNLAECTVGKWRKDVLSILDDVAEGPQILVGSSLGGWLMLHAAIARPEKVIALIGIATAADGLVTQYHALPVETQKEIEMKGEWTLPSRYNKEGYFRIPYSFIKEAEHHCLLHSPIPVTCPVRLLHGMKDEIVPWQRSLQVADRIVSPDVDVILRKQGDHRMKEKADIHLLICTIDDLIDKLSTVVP

[7] = target: Hepatocyte nuclear factor 4-alpha (Homo sapiens, UniProt P41235); type: functional, cell-based;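 further: biochemical luminescence-based dose-response counterscreen measuring inhibition of HNF4 dimerization, run alongside a screen for blockers of ABHD5–perilipin-5 interaction; split luciferase complementation of HNF4 fusion proteins in cell lysate measuring dimerization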
Hepatocyte nuclear factor 4-alpha, sequence (P41235 whole entry, the tested form may be a part): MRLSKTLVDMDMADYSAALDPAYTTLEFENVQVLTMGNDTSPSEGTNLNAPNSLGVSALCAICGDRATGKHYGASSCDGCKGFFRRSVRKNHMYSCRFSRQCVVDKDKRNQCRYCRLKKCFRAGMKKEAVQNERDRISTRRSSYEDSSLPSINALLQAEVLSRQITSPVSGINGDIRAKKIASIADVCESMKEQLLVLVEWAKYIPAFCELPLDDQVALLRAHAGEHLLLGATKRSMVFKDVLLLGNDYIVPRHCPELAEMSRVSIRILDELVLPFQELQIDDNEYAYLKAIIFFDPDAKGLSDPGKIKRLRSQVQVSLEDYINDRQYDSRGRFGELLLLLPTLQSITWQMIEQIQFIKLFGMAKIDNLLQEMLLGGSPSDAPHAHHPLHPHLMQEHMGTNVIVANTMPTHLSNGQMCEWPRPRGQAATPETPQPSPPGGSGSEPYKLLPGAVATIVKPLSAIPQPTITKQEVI

[8] = target: Heat shock protein HSP 90-alpha (Homo sapiens, UniProt P07900); type: functional, organism-based
[9] = target: T2, Sentrin-specific protease 1 (Homo sapiens, UniProt Q9P0U3); assay: SENP1 catalytic domain blockers, concentration series – biochemical, kinetic FRET, dose response (AID 651697); type: functional; conditions: read-out: IC50_Mean
T2 sequence (Q9P0U3 whole entry, the tested form may be a part): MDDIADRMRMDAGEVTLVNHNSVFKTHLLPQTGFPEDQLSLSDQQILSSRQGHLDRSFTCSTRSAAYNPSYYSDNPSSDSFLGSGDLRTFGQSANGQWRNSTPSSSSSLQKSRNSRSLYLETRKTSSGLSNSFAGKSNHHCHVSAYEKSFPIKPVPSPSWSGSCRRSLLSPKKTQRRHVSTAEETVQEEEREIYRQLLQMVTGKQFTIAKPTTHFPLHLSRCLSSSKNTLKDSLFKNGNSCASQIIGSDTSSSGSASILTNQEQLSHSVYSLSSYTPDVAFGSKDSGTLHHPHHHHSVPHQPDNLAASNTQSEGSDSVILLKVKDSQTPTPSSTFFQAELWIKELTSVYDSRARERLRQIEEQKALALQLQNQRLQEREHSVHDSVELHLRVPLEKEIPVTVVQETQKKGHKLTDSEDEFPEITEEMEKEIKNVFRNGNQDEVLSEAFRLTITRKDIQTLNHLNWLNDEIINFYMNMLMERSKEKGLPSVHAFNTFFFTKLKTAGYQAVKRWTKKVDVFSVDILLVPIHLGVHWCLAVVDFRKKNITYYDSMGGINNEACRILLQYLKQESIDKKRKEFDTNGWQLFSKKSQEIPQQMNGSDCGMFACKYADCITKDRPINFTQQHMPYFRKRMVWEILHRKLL

[10] = target: T2, Sentrin-specific protease 1; assay: Dose response confirmation of small molecule inhibitors of the catalytic domain of the SUMO protease, SENP1 in a FRET assay.; type: functional; conditions: read-out: IC50_Mean
Streptococcus = assay: GAS UMAA2166 growth inhibition – luminescence, BacTiterGlo, counter-screen for streptokinase expression inhibitor project, dose response (AID 1915); type: functional, organism-based;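 further: potency for reduction of bacterial viability or growth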
[11] = target: T3, Replicative DNA helicase DnaB (Mycobacterium tuberculosis, UniProt P9WMR3); assay: DnaB intein splicing inhibitors, dose response, biochemical, cell-free fluorescence (AID 449749); type: functional
T3 sequence (P9WMR3 whole entry): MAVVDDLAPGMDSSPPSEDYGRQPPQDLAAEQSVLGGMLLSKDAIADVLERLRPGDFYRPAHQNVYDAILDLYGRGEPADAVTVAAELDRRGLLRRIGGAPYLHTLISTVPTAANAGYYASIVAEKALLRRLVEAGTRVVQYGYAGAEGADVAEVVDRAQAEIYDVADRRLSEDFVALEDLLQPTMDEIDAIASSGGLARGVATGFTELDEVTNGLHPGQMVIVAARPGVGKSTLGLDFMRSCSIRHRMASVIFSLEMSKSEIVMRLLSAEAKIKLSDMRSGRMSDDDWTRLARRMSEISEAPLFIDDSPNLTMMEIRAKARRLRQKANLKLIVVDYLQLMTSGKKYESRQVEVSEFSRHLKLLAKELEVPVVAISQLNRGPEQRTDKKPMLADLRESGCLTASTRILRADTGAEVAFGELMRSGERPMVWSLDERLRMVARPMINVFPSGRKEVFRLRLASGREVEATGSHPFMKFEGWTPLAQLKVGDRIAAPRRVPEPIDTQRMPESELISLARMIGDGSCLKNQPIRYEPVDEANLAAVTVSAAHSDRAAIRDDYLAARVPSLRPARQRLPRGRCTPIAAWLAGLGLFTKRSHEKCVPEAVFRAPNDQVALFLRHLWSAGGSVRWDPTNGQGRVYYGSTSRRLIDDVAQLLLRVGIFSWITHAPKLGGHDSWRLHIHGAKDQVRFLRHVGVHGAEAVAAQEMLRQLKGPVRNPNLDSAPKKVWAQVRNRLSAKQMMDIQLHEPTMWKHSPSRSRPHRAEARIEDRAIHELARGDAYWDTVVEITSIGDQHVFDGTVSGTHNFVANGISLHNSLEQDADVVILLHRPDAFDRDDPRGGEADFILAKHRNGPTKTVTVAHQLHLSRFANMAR

Protein RecA = target: T4, Protein RecA (Mycobacterium tuberculosis, UniProt P9WHJ3); assay: Fluorescence Cell-Free Homogeneous Dose Retest to Identify Inhibitors of RecA-Intein Splicing Activity. [Related pubchem assays (depositor defined):AID2097, AID2223, AID489010, AID492950]; type: functional
T4 sequence (P9WHJ3 whole entry): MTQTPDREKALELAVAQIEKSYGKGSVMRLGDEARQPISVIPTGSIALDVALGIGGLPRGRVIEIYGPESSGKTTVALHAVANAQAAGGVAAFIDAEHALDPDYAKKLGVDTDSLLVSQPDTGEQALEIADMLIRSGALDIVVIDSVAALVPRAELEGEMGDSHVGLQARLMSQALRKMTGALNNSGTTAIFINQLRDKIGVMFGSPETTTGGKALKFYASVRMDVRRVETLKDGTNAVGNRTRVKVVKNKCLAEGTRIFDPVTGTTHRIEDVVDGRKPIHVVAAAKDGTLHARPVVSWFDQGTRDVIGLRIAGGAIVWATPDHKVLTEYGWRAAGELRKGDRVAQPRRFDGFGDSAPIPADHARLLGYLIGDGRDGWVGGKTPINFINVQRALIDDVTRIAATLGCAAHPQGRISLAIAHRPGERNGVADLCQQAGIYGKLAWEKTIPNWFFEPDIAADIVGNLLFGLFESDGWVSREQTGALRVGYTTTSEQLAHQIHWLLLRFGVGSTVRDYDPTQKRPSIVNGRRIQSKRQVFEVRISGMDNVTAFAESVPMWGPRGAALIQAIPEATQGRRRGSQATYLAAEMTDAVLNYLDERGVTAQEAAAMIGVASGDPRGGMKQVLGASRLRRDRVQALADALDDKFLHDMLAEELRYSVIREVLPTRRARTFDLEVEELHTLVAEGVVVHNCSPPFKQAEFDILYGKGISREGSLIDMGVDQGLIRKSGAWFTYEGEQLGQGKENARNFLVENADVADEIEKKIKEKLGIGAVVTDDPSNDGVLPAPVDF

[12] = bead-based luminescence quenchers, dual-tagged ARNT – biochemical, AlphaScreen, cherry-pick, artefact control for ARNT-TACC3 interaction inhibitor project, dose response (AID 651705); type: functional;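 further: AlphaScreen bead proximity signal that flags compounds interfering with the detection technology; potency reflects signal decrease which marks the compound as an assay artifact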
[13] = tested on: Streptococcus sp. 'group A'; assay: Streptococcus pyogenes SK(-)GAS viability under kanamycin – luminescence, BacTiterGlo, confirmation, counter-screen for streptokinase expression inhibitor project, dose response (AID 1900); type: functional, organism-based
INS1 = assay: INS-1E survival protection against cytokine death – cell-based, luminescence, retest, dose response (AID 449756); type: functional; conditions: Rattus norvegicus;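 further: cell death triggered by IL-1 beta plus TNF-alpha plus IFN-gamma mixture; protective hits raise ATP signal compared with cytokine alone wells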
[14] = target: T5, Apoptotic protease-activating factor 1 (Homo sapiens, UniProt O14727); type: functional
T5 sequence (O14727 whole entry): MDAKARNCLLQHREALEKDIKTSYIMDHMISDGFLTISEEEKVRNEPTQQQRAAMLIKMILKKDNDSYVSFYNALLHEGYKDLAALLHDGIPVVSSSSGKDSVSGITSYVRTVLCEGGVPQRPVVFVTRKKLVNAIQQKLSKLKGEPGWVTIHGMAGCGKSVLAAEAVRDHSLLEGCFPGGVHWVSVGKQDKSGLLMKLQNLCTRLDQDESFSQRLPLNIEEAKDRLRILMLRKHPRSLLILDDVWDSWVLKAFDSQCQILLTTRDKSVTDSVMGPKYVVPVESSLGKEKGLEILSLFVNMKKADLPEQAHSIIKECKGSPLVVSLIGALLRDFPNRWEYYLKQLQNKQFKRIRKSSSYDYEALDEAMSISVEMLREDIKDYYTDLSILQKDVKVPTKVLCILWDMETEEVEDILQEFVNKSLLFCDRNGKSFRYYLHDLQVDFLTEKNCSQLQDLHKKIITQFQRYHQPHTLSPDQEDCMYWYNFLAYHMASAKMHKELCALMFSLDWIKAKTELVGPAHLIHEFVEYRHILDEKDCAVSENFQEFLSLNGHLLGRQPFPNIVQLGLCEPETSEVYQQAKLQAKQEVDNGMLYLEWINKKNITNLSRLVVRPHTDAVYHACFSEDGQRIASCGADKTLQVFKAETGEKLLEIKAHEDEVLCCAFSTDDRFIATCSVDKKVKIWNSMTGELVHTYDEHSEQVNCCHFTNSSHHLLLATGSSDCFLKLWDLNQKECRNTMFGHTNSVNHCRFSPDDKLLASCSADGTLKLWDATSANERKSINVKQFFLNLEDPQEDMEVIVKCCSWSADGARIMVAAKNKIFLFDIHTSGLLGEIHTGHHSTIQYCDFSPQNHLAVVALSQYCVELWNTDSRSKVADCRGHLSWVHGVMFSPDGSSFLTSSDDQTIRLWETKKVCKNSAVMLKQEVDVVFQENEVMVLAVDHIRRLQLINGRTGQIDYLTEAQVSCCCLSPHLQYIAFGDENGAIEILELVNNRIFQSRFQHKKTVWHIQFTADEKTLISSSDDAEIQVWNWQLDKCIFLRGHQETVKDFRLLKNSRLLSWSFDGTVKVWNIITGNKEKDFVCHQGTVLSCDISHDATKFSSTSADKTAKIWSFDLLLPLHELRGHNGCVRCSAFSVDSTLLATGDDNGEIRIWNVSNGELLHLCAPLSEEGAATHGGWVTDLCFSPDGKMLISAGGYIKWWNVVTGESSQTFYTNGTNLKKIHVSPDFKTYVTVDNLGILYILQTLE

[15] = target: Nuclear receptor subfamily 5 group A member 2 (Homo sapiens, UniProt O00482); type: functional, cell-based;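 further: HEK293T cells transfected with LRH-1 and a StAR promoter luciferase reporter; potency for inhibitors that lower LRH-1 driven reporter light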
Nuclear receptor subfamily 5 group A member 2, sequence (O00482 whole entry): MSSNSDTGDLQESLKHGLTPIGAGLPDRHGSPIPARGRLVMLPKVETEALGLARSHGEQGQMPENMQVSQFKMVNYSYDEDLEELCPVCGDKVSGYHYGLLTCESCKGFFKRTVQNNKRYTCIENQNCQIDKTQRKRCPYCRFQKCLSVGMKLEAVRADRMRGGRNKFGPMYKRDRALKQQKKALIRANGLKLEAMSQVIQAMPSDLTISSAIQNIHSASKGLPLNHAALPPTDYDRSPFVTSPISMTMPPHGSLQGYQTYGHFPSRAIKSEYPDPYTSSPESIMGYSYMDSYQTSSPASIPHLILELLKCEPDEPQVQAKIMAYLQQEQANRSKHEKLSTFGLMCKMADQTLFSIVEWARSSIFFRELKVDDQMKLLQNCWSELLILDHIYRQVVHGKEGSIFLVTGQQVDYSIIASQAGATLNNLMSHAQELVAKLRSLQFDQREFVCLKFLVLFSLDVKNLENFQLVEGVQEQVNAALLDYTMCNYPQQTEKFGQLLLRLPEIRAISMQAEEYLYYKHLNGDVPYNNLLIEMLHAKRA

Steroidogenic factor 1 = Steroidogenic factor 1 (Homo sapiens, UniProt Q13285); assay: Counterscreen for inverse agonists of the liver receptor homolog-1 (LRH-1; NR5A2): Luminescence-based cell-based high throughput dose response assay to identify inverse agonists of the Steroidogenic Factor 1 Nuclear Receptor (SF1; NR5A1).; type: functional
Steroidogenic factor 1, sequence (Q13285 whole entry): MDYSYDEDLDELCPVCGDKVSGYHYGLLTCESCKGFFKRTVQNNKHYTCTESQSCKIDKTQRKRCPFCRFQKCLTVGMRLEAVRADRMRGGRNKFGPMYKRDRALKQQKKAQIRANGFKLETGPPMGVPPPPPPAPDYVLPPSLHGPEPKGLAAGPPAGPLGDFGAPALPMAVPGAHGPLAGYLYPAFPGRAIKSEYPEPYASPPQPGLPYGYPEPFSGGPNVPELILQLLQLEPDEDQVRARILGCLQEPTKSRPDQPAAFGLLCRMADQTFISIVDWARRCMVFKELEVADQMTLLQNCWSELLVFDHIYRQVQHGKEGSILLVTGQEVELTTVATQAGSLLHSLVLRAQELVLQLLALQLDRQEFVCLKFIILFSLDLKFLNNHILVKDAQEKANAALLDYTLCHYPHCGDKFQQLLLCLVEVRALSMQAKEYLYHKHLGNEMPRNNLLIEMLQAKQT

[16] = nonselective StAR promoter luciferase inhibitors – cell-based, luminescence, luciferase reporter, counter-screen for LRH-1 inverse agonist project, dose response (AID 651969); type: functional
[17] = target: T6, Mitochondrial peptide methionine sulfoxide reductase (Bos taurus, UniProt P54149); type: functional;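 further: absorbance read-out, biochemical high-throughput dose-response screen for MsrA inhibitors, confirmatory; recombinant bovine MsrA coupled to E. coli TrxB with NADPH and selenocystamine; potency is for inhibitors of MsrA activity on DMSO substrate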
T6 sequence (P54149 whole entry): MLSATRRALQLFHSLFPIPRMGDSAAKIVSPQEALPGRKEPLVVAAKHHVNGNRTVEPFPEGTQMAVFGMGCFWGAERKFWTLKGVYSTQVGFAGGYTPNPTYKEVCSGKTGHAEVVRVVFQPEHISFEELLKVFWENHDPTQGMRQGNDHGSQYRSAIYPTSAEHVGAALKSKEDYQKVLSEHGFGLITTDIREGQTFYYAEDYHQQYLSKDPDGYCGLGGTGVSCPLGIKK

[18] = Fluorescence-based cell-based high throughput dose response assay for inhibitors of the interaction of nucleotide-binding oligomerization domain containing 2 (NOD2) and the receptor-interacting serine-threonine kinase 2 (RIPK2).; type: functional; conditions: Homo sapiens

## COc1ccc(OC)c(Nc2nc(NCCO)c3ccccc3n2)c1
[1]
  EC50: > 30 µM (not active)
[2]
  AC50: 11.6 µM (active)
[3]
  AC50: 4.32 µM (active)
[4]
  EC50: 2.1 µM (active)
[5]
  EC50: > 120 µM (not active)

## CCOC(=O)N1C(=O)[C@@](CC)(c2cccc(C)c2)N1C(=O)OCC
[6]
  IC50: 0.06 µM (active)

## CC1=CC2C(C(O)CC3(C)C2CC(C)C32OCOC23COCO3)C2(C)CC(C=O)=C(O)C=C12 (configuration not stated)
[7]
  IC50: 11 µM (inactive)
[8]
  AC50: 4.34 µM (active)

## O=C1c2cc(CO)cc(O)c2C(=O)c2c(O[C@@H]3OC(CO)[C@@H](O)[C@@H](O)[C@@H]3O)cccc21 (some centres not stated)
[9]
  IC50: 22.1 µM (inactive)
[10]
  IC50: 17.4 µM (active)

## Cc1[nH]n(-c2ccccc2)c(=O)c1/C=N\NC(=O)C1COc2ccccc2O1 (configuration not stated)
Streptococcus
  EC50: 8.94 µM (active)
[11]
  AC50: 40.9 µM (active)
Protein RecA
  EC50: 17.5 µM (active)
[12]
  AC50: 104 µM (active)
[13]
  EC50: 1.36 µM (active)
INS1
  AC50: 5.03 µM (active)
[14]
  IC50: 8.83 µM (active)

## COc1ccc(OC)c(NC(=O)c2ccccc2NC(=O)c2ccco2)c1
[15]
  IC50: 24 µM (inactive)
Steroidogenic factor 1
  IC50: 11.4 µM (inactive)
[16]
  IC50: 35.9 µM (inactive)

## Cn1cnc([N+](=O)[O-])c1S(=O)(=O)Oc1ccc(Cl)cc1
[17]
  IC50: 42.8 µM (inactive)
[18]
  IC50: 4.09 µM (active)
